Assay: Pharmacokinetics after single intravenous bolus of E2 and P in sheep
Format: in vivo
Details: Dorset crossbred, plasma, E2 160 μg, P 10 mg, mean; for AUC(0-inf): n = 2; for clearance: n = 2, read-out: CL, total body clearance (converted); for half-life: n = 2, read-out: T1/2, terminal half-life (converted); for Vd: n = 2, read-out: Vz, volume of distribution based on terminal elimination phase
Source text: Standard noncompartmental PK analysis methods were used.

Row | AUC(0-inf) | clearance | half-life | Vd | SMILES
1 | 1.79 ng·h/mL | 1490 mL/min | 2.22 h | 287 L | C[C@]12CC[C@@H]3c4ccc(O)cc4CC[C@H]3[C@@H]1CC[C@@H]2O [E2, 17β-estradiol]
2 | 20 ng·h/mL | 8330 mL/min | 2.75 h | 1980 L | CC(=O)[C@H]1CC[C@H]2[C@@H]3CCC4=CC(=O)CC[C@]4(C)[C@H]3CC[C@]12C [P, progesterone]

— patent US20240115416A1, “SEGMENTED EVA INTRAVAGINAL RINGS” (priority 2019, published 2024)
